The subject of assay [1] is lung cancer cell line H1299. Description: Proliferation assay (growth inhibition MTT). In kind it is cell-based. To be noted: H1299, serum-free medium, 5 days. The protocol: A. Tumor cells (from a lung cancer cell line, H1299) were seeded in 96-well plates at a density of 2.0×10^5 cells per well in serum-free medium containing different concentrations of the test agent, the small molecule inhibitor compound XV′ (77427). After 5 days in culture, the number of viable cells per well was estimated by the growth inhibition MTT assay (as reported in Iwai et al. (1999) Lung Cancer 23, 209-22).

For assay [2], the target named is T1, GRP (Homo sapiens, UniProt P07492).
T1 construct: GRP is a 27 amino acid peptide; purchased Peninsula (S. Carlos, Calif.); host or cells: synthetic peptide
T1 sequence (P07492 24-50 limits assumed): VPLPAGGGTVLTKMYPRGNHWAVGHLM
The experiment in a line: IP3 analysis for GRP in H-1299 cells. To be noted: peptide GRP; IP3 or Ca2+ levels induced by GRP in H1299 cells. It is filed as cell-based. How it is done:
This cell line was obtained from ATCC and cultured as the other cell lines. The signal transduction pathway for GRP includes elevation of intracellular levels of IP3 and Ca^2+ and these were investigated as previously shown (Ryan et al. (1998) J. Biol. Chem., 273, 13613-13624). Briefly, to quantify IP3, contents cells were subcultured into 24-well plates (5×10^4 cells/well). After a 24 h incubation period at 37° C., the cells were incubated with 3 μCi/ml myo-[^3H]inositol in growth medium supplemented with 2% FBS for an additional 24 h. Incubation volumes were 500 μl of assay buffer/well containing 135 mM sodium chloride, 20 mM HEPES (pH 7.4), 2 mM calcium chloride, 1.2 mM magnesium sulfate, 1 mM EGTA, 20 mM lithium chloride, 11.1 mM glucose, and 0.05% BSA (v/v) with or without any of the molecules studied at 37° C. for 30 min. Experiments were terminated with 1 ml of ice-cold hydrochloric acid/methanol (0.1%, v/v). [^3H]IP3 was eluted off Dowex AG-1-X8 anion exchange columns with 2 ml of 1 mM ammonium formate and 100 mM formic acid. Each of the eluates was collected and mixed with 10 ml of scintillation mixture (BioSafe, Research Products International Corp, Mount Prospect, Ill.), and the radioactivity was measured in a LS 3801 β counter (Beckman, Somerset, N.J.).

Assay [3] deals with Bovine retinal microvascular endothelial cells. The experiment in a line: Cord formation assay in Matrigel. In kind it is cell-based. How it is done: Formation of tube-like structures was performed as described in Kubota et al. (1988) J. Cell Biol. 107, 1589-1598; Nam et al. (2003) Phytother. Res. 17, 107-111; and Macpherson et al. (2003) Mol Cancer Ther 2, 845-54. Briefly, a thin layer of Matrigel (Collaborative Biomedical Products, Bedford, Mass.) was allowed to polymerize at the bottom of 24-well plates. […] After an overnight incubation at 37° C., the tubular structures were photographed (3 pictures per well at 10×) and the number of knots per photographic field were counted as a measure of lattice complexity.

The subject of the next assay is cell line A345. Description: Clonogenic assay in soft agar. It is filed as cell-based. The note with it: A345, 3 weeks. How it is done: B. Cells from the cell line […] were grown in substrate-independent conditions (clonogenic assay) as previously published (Iwai et al., supra).
Another assay concerns GRP-induced angiogenesis. The experiment in a line: Directed in vivo angiogenesis assay (DIVAA). On the set-up: species or system mice. To be noted: for inhibition of GRP-induced angiogenesis: 1 nM GRP in angioreactors, nude mice, 11 days. How it is done:
Analysis and quantitation of angiogenesis was done using DIVAA as previously described (Martinez et al. (2002) J Natl Cancer Inst 94, 1226-37). Briefly, 10 mm long surgical-grade silicone tubes with only one end open (angioreactors) were filled with 20 μl of matrigel alone or mixed with GRP and the small molecules at the indicated concentrations. After the matrigel solidified, the angioreactors were implanted into the dorsal flanks of athymic nude mice (NCI colony). After 11 days, the mice were injected iv with 25 mg/ml FITC-dextran (100 μl/mouse, Sigma) 20 min before removing angioreactors. Quantitation of neovascularization in the angioreactors was determined as the amount of fluorescence trapped in the implants and was measured in a HP Spectrophotometer (Perkin Elmer).

The test system of another assay is H1299 xenograft. The experiment in a line: In vivo tumor growth (xenograft experiment). On the set-up: species or system mice. How it is done:
Thirty female athymic nude mice from the NIH colony in Frederick (MD) were injected subcutaneously with 1.0×10^7 H1299 cells/mouse. Two weeks later, all the mice had developed palpable tumors under the skin and at this time they were randomly divided in three groups. Three times a week, each individual tumor was measured (length, height, thickness) and every mouse received an intratumoral injection, according to their group. Group 1 (control) received 100 μl PBS (negative control); group 2 received 100 μl 0.5 μM compound XV′ (77427) in PBS; and group 3 received 100 μl 5 μM compound XV′ (77427) in PBS. When the tumor burden became unbearable (larger than 2000 mm^3), the mice were sacrificed.

Assay [4] concerns the target T2, AM (Homo sapiens, UniProt P35318).
T2 construct: AM is a 52 amino acid peptide; purchased Peninsula (S. Carlos, Calif.); host or cells: synthetic peptide
T2 sequence (P35318 95-146): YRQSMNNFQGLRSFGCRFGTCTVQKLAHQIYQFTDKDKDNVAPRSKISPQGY
The experiment in a line: cAMP analysis for AM in Rat2 cells. In kind it is cell-based, rat. The protocol: This cell line was obtained from the American Tissue Culture Collection (ATCC, Manassas, Va.) and maintained in RPMI-1640 supplemented with 10% fetal bovine serum (FBS, Invitrogen, Carlsbad, Calif.). Cells were seeded in 24-well plates at 2×10^4 cells/well and incubated at 37° C. in 5% CO2 until they reached 80% confluency. Before the assay, cells were incubated for 15 min in TIS medium (RPMI-1640 plus 10 μg/ml transferrin, 10 μg/ml insulin, and 50 nM sodium selenite) containing 1% BSA, 1 mg/ml bacitracin, and 100 μM isobutylmethylxanthine. Peptides and small molecules were applied in the same medium for 5 min at the indicated concentrations in a volume of 250 μl. The reaction was terminated by adding an equal volume of ice-cold ethanol. cAMP contents were measured using the Biotrac cAMP radioimmunoassay (Amersham Biosciences, Piscataway, N.J.), as described (Pio et al. (2001) J. Biol. Chem. 276, 12292-12300).

The target in assay [5] is T2, AM. Description: Primary screening: interference with binding of AM to its blocking monoclonal antibody. The note with it: 1 μM compound. How it is done: Human synthetic AM was solid-phased into PVC 96-well plates (Fisher Scientific, Pittsburgh, Pa.) by incubating 50 μl of AM (at 1 nmols/μl) per well for 1 h. To solid-phase […] into the plates, these were previously treated with glutaraldehyde as described (Kasprzyk et al. (1988) Anal. Biochem. 174, 224-234). After discarding the coating solution, the plates were blocked with 200 μl per well of 1% bovine serum albumin (BSA) in phosphate buffer saline (PBS). After 1 h, this solution was aspirated off and 50 μl containing 1 μM of one of the compounds of the library in PBS was added per well. Immediately after, 50 μl of labeled antibody (at 2.4 μg/ml) were added on each well and the solution was allowed to react for 1 h. Following 3 thorough washes with 1% BSA in PBS to remove the unbound antibodies, peroxidase activity was developed using o-phenylenediamine dihydrochloride (Sigma) as a substrate. The reaction product was quantified with a plate reader (Spectra Rainbow, Tecan, Austria) at 450 nm. Each plate contained several internal controls including wells without any coating that are used to calculate non-specific binding; wells where no potential antagonists were added, which provided maximum binding; and wells where the unlabeled antibody (at 1.2 μg/ml) substituted the small molecule, as a positive inhibition control (FIG. 1B). […]

Assay [6] deals with T1, GRP. The experiment in a line: Ca2+ analysis for GRP in H-1299 cells. In kind it is cell-based. The note with it: 1 nM GRP alone, H1299 cells. The protocol: After washing two times with TIS, 2 ml of cell suspension were placed in a Delta PTI Scan 1 spectrofluorimeter (Photon Technology International, South Brunswick, N.J.) equipped with a stir bar and water bath (37° C.). Fluorescence was measured at dual excitation wavelengths of 340 nm and 380 nm using an emission wavelength of 510 nm.

“Also recorded” adds a separate entry of the source. Ends that are not written are not given here.

`Nc1nc(Cl)cc(NCCO)n1` [compound 77427]: in [1], the “growth inhibitory action on lung cancer cells (MTT)” value was “modest dose-dependent growth inhibitory action”. Further, on GRP [2], the “Action on second messengers” value is recorded as “Antagonists”. Moreover, the “number of knots per photographic field” value in [3] (5 nM GRP and 0.5 μM compound added together) was found to be 12±4. In addition, in [3] (5 nM GRP plus 0.5 μM compound), the “complexity of the tubular lattice” value was “marked decrease; also recorded: reduces network complexity; also recorded: greatly reduced”. Moreover, in [3] (GRP-induced cord formation), the “Biological activity (cord formation)” value is “Inhibits cord”. The “number of colonies in soft agar” value with cell line A345 was “reduces the number of colonies”. Also, the “inhibition of GRP-induced angiogenesis” value is “dose-dependent inhibition” with GRP-induced angiogenesis and “inhibited” with GRP-induced angiogenesis (listed as XV′). The values for the tumor size result in the assay with H1299 xenograft (after a single intratumoral injection) and in the assay with H1299 xenograft (after the second intratumoral injection) were “significantly reduced” and “all but disappeared”, respectively.

In the case of `c1ccc(Nn2c(CCCCCCCCc3nnc(COc4ccccc4)n3Nc3ccccc3)nnc2COc2ccccc2)cc1` [compound 697165], at AM [4] (in the presence of 100 nM AM), the “dose dependence of cAMP elevation” value is “dose-dependent elevation of cAMP”. Further, the “variation of intracellular cAMP levels” value on AM [4] (in the presence of 100 nM AM, Rat2 cells) was “superagonist”. Moreover, the “Action on second messengers” value at AM [4] (peptide AM, cAMP induced by 100 nM AM in Rat2 cells) is on record as “Superagonists”. Moreover, the “competition with labeled blocking monoclonal antibody for AM-coated plate” value at AM [5] is given as “successful competitors”.

Turning to “GRP: Synthetic human gastrin releasing peptide, 27 amino acid peptide hormone (VPLPAGGGTVLTKMYPRGNHWAVGHLM; ends and bridges not checked; UniProt P07492 24-50, looked up) [reference compound]”, in the assay with GRP [6], the “intracellular Ca2+” value was “marked elevation”. The “number of knots per photographic field” value in assay [3] (5 nM GRP alone) is 37±5. Further, the “angiogenic potential in vivo” value in the assay with GRP-induced angiogenesis (1 nM GRP) is recorded as “exhibits angiogenic potential in vivo”.

The values above are taken from US20120232107A1, “NON-PEPTIDE ANTAGONISTS OF GASTRIN RELEASING PEPTIDE” (The Government of the United States of America as …, priority 2003, published 2012).
